Assay results published in ChEMBL document CHEMBL5042479, “Synthesis and Characterization of New V1A Antagonist Compounds: The Separation of Four Atropisomeric Stereoisomers” (J Med Chem, 2021).
In brackets after ≈: the same amount, converted by molar mass. Blank lines part the entries; values can stand above or below the compound they belong to.

Key:
[1] = target: T1, Vasopressin V1a receptor (Homo sapiens, UniProt P37288); assay: Inhibition of human V1A receptor expressed in human 1321N1 cells assessed as calcium mobilization by fluorescent plate reader; type: functional, cell-based
Target sequence in this assay (P37288 whole entry): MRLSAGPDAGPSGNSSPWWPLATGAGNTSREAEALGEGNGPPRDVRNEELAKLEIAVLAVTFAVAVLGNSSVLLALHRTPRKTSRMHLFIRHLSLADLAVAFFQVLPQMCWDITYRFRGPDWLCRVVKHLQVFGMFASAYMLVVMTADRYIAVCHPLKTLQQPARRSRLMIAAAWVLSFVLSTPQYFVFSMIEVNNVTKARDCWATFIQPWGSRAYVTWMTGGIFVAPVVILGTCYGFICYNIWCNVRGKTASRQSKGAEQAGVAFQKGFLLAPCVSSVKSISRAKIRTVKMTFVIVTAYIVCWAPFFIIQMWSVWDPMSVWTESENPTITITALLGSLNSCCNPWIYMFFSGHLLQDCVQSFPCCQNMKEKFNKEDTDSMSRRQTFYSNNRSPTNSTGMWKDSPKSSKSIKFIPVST

[2] = target: T1, Vasopressin V1a receptor; assay: Displacement of [3H]-arginine-vasopressin from human V1A receptor expressed in human 1321N1 cell membranes incubated for 60 mins by radioligand binding assay; parameters: species or system Membrane
Target sequence in this assay (P37288 whole entry): as above

[3] = target: T2, Vasopressin V2 receptor (Homo sapiens, UniProt P30518); assay: Displacement of [3H]-arginine-vasopressin from human V2 receptor expressed in human 1321N1 cell membranes incubated for 60 mins by radioligand binding assay; parameters: species or system Membrane
[4] = target: T2, Vasopressin V2 receptor; assay: Displacement of [3H]-labelled arginine-vasopressin from human V2 receptor expressed in human 1321N1 cell membranes at 1 uM incubated for 60 mins by radioligand binding assay; conditions: Membrane
[5] = Intrinsic clearance in human liver microsomes in presence of reduced NADPH
[6] = Intrinsic clearance in mouse liver microsomes in presence of reduced NADPH
[7] = tested on: 1321N1; assay: Selectivity ratio of Ki for human V2 receptor expressed in human 1321N1 cell membranes to Ki for human V1A receptor expressed in human 1321N1 cell membranes; type: cell-based
[8] = Permeability directional ratio in mouse Caco-2 cells; conditions: human
[9] = Intrinsic clearance in rat liver microsomes in presence of reduced NADPH
[10] = Apparent permeability across apical to basolateral side in mouse Caco-2 cells; conditions: human
[11] = physchem; conditions: PBS, pH 7.4
Description: Kinetic solubility of compound in PBS at pH 7.4 incubated for 2 hrs by HPLC-MS analysis

[12] = target: T1, Vasopressin V1a receptor; assay: Displacement of [3H]-labelled arginine-vasopressin from human V1A receptor expressed in human 1321N1 cell membranes at 5 nM incubated for 60 mins by radioligand binding assay; conditions: Membrane
Target sequence in this assay (P37288 whole entry, looked up): as the sequence (P37288 whole entry) above

T2 sequence (P30518 whole entry): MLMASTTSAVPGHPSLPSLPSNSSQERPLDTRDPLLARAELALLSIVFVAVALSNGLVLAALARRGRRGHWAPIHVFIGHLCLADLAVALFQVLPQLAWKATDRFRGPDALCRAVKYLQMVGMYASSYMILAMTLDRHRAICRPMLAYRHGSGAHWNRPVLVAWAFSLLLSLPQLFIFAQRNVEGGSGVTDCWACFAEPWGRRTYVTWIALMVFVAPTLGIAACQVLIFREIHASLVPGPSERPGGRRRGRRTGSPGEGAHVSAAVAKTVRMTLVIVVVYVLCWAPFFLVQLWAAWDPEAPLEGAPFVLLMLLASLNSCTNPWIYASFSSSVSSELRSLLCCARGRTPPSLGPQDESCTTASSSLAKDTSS

IC50 [1]: 1.9 nM | Ki [2]: 0.4 nM | Ki [3]: 1070 nM
SMILES: Cc1ccc2c(c1)CC(O)Cc1nnc([C@H]3CC[C@H](Oc4ccccn4)CC3)n1-2 (stereo partly specified)

Ki [2]: 11 nM
SMILES: Cc1cccc2c1-n1c(nnc1[C@H]1CC[C@H](Oc3ccccn3)CC1)C[C@H](O)C2 (atropisomer aR) [listing 1 of 2 here]

inhibition [4]: -5%
SMILES: Cc1cccc2c1-n1c(nnc1[C@H]1CC[C@H](Oc3ccccn3)CC1)C[C@H](O)C2 (atropisomer aS) [listing 1 of 2 here]

SMILES: CN1Cc2cc(Cl)ccc2-n2c(nnc2C2CCN(c3ccccn3)CC2)C1
inhibition [4]: 13%

microsomal CLint [5]: 0.4 µL/min/mg | microsomal CLint [6]: 6.3 µL/min/mg | efflux ratio [8]: 6.2 | microsomal CLint [9]: 38 µL/min/mg | Papp A→B [10]: 20.3 ×10⁻⁶ cm/s | solubility kinetic at 2 h [11]: 97.5 µM (≈ 40.1 µg/mL)
SMILES: OC1Cc2cc(Cl)ccc2-n2c(nnc2[C@H]2CC[C@H](Oc3ccccn3)CC2)C1 (stereo partly specified)
Selectivity ratio [7]: 1570

inhibition [4]: 3% | IC50 [1]: 390 nM | Ki [2]: 34 nM
SMILES: Cc1ccc2c(c1)-n1c(nnc1[C@H]1CC[C@H](Oc3ccccn3)CC1)CC(O)C2 (stereo partly specified)

Ki [2]: 146 nM
SMILES: Cc1cccc2c1-n1c(nnc1[C@H]1CC[C@H](Oc3ccccn3)CC1)C[C@H](O)C2 (atropisomer aS) [listing 2 of 2 here]

Ki [2]: 2640 nM
SMILES: Cc1cccc2c1-n1c(nnc1[C@H]1CC[C@H](Oc3ccccn3)CC1)C[C@@H](O)C2 (atropisomer aS) [listing 1 of 2 here]

inhibition [4]: 0%
SMILES: Cc1cccc2c1-n1c(nnc1[C@H]1CC[C@H](Oc3ccccn3)CC1)C[C@@H](O)C2 (atropisomer aS) [listing 2 of 2 here]

CLH [5]: 7 µL/min/mg | CLH [6]: 94 µL/min/mg | CLH [9]: 124 µL/min/mg
SMILES: Clc1ccc2c(c1)CCCc1nnc([C@H]3CC[C@H](Oc4ccccn4)CC3)n1-2

inhibition [4]: -3%
SMILES: Cc1cccc2c1-n1c(nnc1[C@H]1CC[C@H](Oc3ccccn3)CC1)C[C@H](O)C2 (atropisomer aR) [listing 2 of 2 here]

microsomal CLint [5]: 4.1 µL/min/mg | microsomal CLint [6]: 6.7 µL/min/mg | efflux ratio [8]: 4.7 | Ki [3]: 900 nM | microsomal CLint [9]: 56.2 µL/min/mg | Papp A→B [10]: 20.5 ×10⁻⁶ cm/s | solubility kinetic at 2 h [11]: 98.9 µM (≈ 40.6 µg/mL)
SMILES: O[C@H]1Cc2cc(Cl)ccc2-n2c(nnc2[C@H]2CC[C@H](Oc3ccccn3)CC2)C1
Selectivity ratio [7]: 3000

Ki [2]: 6.3 nM
SMILES: Cc1cccc2c1-n1c(nnc1[C@H]1CC[C@H](Oc3ccccn3)CC1)C[C@@H](O)C2 (atropisomer aR) [listing 1 of 2 here]

inhibition [12]: 26%
SMILES: OC1Cc2ccc(Cl)cc2-n2c(nnc2[C@H]2CC[C@H](Oc3ccccn3)CC2)C1 (stereo partly specified)

SMILES: CN(C)CCn1cc(C(=O)N2CCC3(CC2)OCc2ccccc23)c2ccc(Cl)cc21
inhibition [4]: -6%

inhibition [4]: -9% | Ki [2]: 8.8 nM
SMILES: Cc1cccc2c1CC(O)Cc1nnc([C@H]3CC[C@H](Oc4ccccn4)CC3)n1-2 (stereo partly specified)

inhibition [4]: -6%
SMILES: Cc1cccc2c1-n1c(nnc1[C@H]1CC[C@H](Oc3ccccn3)CC1)C[C@@H](O)C2 (atropisomer aR) [listing 2 of 2 here]

microsomal CLint [5]: 3.2 µL/min/mg | microsomal CLint [6]: 5.1 µL/min/mg | efflux ratio [8]: 3.7 | Ki [3]: 200 nM | microsomal CLint [9]: 16.6 µL/min/mg | Papp A→B [10]: 22.5 ×10⁻⁶ cm/s | solubility kinetic at 2 h [11]: 95.1 µM (≈ 39.1 µg/mL)
SMILES: O[C@@H]1Cc2cc(Cl)ccc2-n2c(nnc2[C@H]2CC[C@H](Oc3ccccn3)CC2)C1
Selectivity ratio [7]: 667

Ki [2]: 12 nM
SMILES: OC1Cc2c(Cl)cccc2-n2c(nnc2[C@H]2CC[C@H](Oc3ccccn3)CC2)C1 (stereo partly specified)
